Experimental data from patent US9353091B2 (priority 2009, dated 2016).

Experiments:
[1] = target: T1, HCV polymerase 1A (Δ21 NS5B) (Hepatitis C virus genotype 1a, UniProt P27958); assay: HCV Polymerase Inhibition Assay (1a); type: biochemical
T1 construct: 20 to 50 nM Δ21 NS5B
Procedure: (§1) Reaction volume was 50 μL. The reaction was terminated by the addition of 1 volume of 4 mM spermine in 10 mM Tris-Cl pH 8.0, 1 mM EDTA. After incubation for at least 15 minutes at room temperature, the precipitated RNA was captured by filtering through a GF/B filter (Millipore) in a 96 well format. The filter plate was washed three times with 200 μL, each of 2 mM spermine, 10 mM Tris-Cl pH 8.0, 1 mM EDTA, and 2 times with ethanol. After air-drying, 30 μL, of Microscint 20 scintillation cocktail (Packard) was added to each well, and the retained cpm were determined by scintillation counting. […] Retained cpm were plotted vs. inhibitor concentration and fit to equation 1 using non-linear regression (ref. 1) to obtain the IC50 values: Retained cpm=A[sqrt{(IC50+It−Et)^2+4*IC50*Et}−(IC50+It−Et)]
(§2) Ref. Morrison, J. F. and S. R. Stone. 1985. Approaches to the study and analysis of the inhibition of enzymes by slow- and tight-binding inhibitors. Comments Mol. Cell. Biophys. 2: 347-368.
(§3) The sequence of the template RNA used was: 5′-[…] […] […] […] […] […] […] […] […] […] […] […] […] […] […] […] […]-3′ (SEQ ID NO: 1)

[2] = target: T2, HCV polymerase 1B (Δ21 NS5B) (Hepatitis C virus genotype 1b, UniProt P26663); assay: HCV Polymerase Inhibition Assay (1b); type: biochemical
T2 construct: 20 to 50 nM Δ21 NS5B
T2 sequence (P26663 2420-2989, stated change not applied): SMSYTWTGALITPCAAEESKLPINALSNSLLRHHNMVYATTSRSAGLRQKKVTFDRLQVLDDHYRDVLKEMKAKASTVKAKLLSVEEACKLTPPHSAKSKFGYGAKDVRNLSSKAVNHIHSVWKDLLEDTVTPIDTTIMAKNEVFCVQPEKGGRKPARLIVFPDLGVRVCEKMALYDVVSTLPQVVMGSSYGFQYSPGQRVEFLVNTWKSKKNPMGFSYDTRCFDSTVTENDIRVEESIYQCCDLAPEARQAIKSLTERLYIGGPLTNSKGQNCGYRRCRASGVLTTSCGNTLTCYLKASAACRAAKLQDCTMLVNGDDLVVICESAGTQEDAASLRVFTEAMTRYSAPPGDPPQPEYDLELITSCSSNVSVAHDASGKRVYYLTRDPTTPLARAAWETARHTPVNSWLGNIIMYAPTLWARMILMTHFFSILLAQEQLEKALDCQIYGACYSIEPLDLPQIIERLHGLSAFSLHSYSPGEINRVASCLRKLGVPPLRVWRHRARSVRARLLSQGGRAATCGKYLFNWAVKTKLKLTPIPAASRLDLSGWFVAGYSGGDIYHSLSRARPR
Procedure: as §1, §2, §3

[3] = test system: genotype 1b-Con1 subgenomic replicon cell line; assay: HCV Polymerase Replicon Assay (genotype 1b-Con1, luciferase reporter); type: cell-based; conditions: Hepatitis C virus, 72 h, 1b-Con1 replicon, three days
[4] = test system: genotype 1a-H77 subgenomic replicon cell line; assay: HCV Polymerase Replicon Assay (genotype 1a-H77, luciferase reporter); type: cell-based; conditions: Hepatitis C virus, 72 h, 1a-H77 replicon, three days

T1 sequence (P27958 2421-2990, stated change not applied): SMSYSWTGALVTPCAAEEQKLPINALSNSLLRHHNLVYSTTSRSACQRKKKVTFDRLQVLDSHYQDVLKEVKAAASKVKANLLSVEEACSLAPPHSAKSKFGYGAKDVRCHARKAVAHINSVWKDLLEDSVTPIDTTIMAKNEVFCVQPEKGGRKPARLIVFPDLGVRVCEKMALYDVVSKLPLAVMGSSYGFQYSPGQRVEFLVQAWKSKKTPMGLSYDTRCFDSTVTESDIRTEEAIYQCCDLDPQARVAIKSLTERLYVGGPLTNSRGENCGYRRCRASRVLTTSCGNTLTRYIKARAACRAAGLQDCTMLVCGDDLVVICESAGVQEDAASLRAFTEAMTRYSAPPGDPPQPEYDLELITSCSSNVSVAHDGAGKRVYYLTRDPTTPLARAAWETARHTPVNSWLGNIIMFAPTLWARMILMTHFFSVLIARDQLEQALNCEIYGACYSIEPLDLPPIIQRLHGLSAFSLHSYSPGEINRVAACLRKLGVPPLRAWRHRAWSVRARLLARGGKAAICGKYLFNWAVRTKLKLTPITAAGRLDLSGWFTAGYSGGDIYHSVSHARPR

COc1c(-c2c[nH]c(=O)[nH]c2=O)cc(-c2ccc3cc(NS(C)(=O)=O)ccc3c2)cc1C(C)(C)C [compound 1, N-(6-(3-tert-butyl-5-(2,4-dioxo-1,2,3,4-tetrahydropyrimidin-5-yl)-4-methoxyphenyl)naphthalen-2-yl)methanesulfonamide]
IC50 [1]: 0.1 to 1 µM | IC50 [2]: 0.1 to 1 µM

COc1c(-c2ccc3c(c2)CC=C3CNS(C)(=O)=O)cc(-c2c[nH]c(=O)[nH]c2=O)cc1C(C)(C)C [compound 3, N-((6-(3-tert-butyl-5-(2,4-dioxo-1,2,3,4-tetrahydropyrimidin-5-yl)-2-methoxyphenyl)-1H-inden-3-yl)methyl)methanesulfonamide]
IC50 [1]: < 0.01 µM | EC50 [3]: ≤ 0.01 µM | IC50 [2]: < 0.01 µM | EC50 [4]: ≤ 0.01 µM

COc1c(/C=C/c2ccc(NS(C)(=O)=O)cc2)cc(-c2c[nH]c(=O)[nH]c2=O)cc1C(C)(C)C [compound 4, (E)-N-(4-(3-tert-butyl-5-(2,4-dioxo-1,2,3,4-tetrahydropyrimidin-5-yl)-2-methoxystyryl)phenyl)methanesulfonamide]
EC50 [3]: ≤ 0.01 µM | EC50 [4]: ≤ 0.01 µM

COc1c(Br)cc(-c2c[nH]c(=O)[nH]c2=O)cc1C(C)(C)C [compound 5, 5-(3-bromo-5-tert-butyl-4-methoxyphenyl)pyrimidine-2,4(1H,3H)-dione]
IC50 [1]: > 1 µM | EC50 [3]: > 1 µM | IC50 [2]: > 1 µM | EC50 [4]: > 1 µM

COc1c(-c2ccc3c(c2)CC=C3CNS(C)(=O)=O)cc(-c2cn(C)c(=O)[nH]c2=O)cc1C(C)(C)C [compound 6, N-((6-(3-tert-butyl-2-methoxy-5-(1-methyl-2,4-dioxo-1,2,3,4-tetrahydropyrimidin-5-yl)phenyl)-1H-inden-3-yl)methyl)methanesulfonamide]
IC50 [1]: < 0.01 µM | EC50 [3]: ≤ 0.01 µM | IC50 [2]: 0.01 to 0.1 µM | EC50 [4]: 0.1 to 1 µM

COc1c(-c2ccc3cc(NS(C)(=O)=O)ccc3c2)cc(-c2cn(C)c(=O)[nH]c2=O)cc1C(C)(C)C [compound 7, N-(6-(3-tert-butyl-2-methoxy-5-(1-methyl-2,4-dioxo-1,2,3,4-tetrahydropyrimidin-5-yl)phenyl)naphthalen-2-yl)methanesulfonamide]
IC50 [1]: < 0.01 µM | EC50 [3]: ≤ 0.01 µM | IC50 [2]: 0.01 to 0.1 µM | EC50 [4]: 0.01 to 0.1 µM

COc1c(-c2ccc3cc(NS(C)(=O)=O)ccc3c2)cc(-c2cn(C)c(=O)n(C)c2=O)cc1C(C)(C)C [compound 8, N-(6-(3-tert-butyl-5-(1,3-dimethyl-2,4-dioxo-1,2,3,4-tetrahydropyrimidin-5-yl)-2-methoxyphenyl)naphthalen-2-yl)methanesulfonamide]
IC50 [1]: 0.1 to 1 µM | EC50 [3]: 0.01 to 0.1 µM | IC50 [2]: 0.1 to 1 µM | EC50 [4]: 0.1 to 1 µM

COc1c(-c2ccc3cc(NS(C)(=O)=O)ccc3c2)cc(-c2ccc[nH]c2=O)cc1C(C)(C)C [compound 9, N-(6-(3-tert-butyl-2-methoxy-5-(2-oxo-1,2-dihydropyridin-3-yl)phenyl)naphthalen-2-yl)methanesulfonamide]
IC50 [1]: < 0.01 µM | EC50 [3]: ≤ 0.01 µM | IC50 [2]: 0.01 to 0.1 µM | EC50 [4]: ≤ 0.01 µM

COc1c(-c2ccc3cc(NS(C)(=O)=O)ccc3c2)cc(-c2ccc(=O)[nH]c2)cc1C(C)(C)C [compound 10, N-(6-(3-tert-butyl-2-methoxy-5-(6-oxo-1,6-dihydropyridin-3-yl)phenyl)naphthalen-2-yl)methanesulfonamide]
IC50 [1]: 0.1 to 1 µM | EC50 [3]: > 1 µM | IC50 [2]: > 1 µM | EC50 [4]: 0.1 to 1 µM

COc1c(-c2ccc3cc(NS(C)(=O)=O)ccc3c2)cc(-c2ccc(F)cc2F)cc1C(C)(C)C [compound 11, N-(6-(5-tert-butyl-2′,4′-difluoro-4-methoxybiphenyl-3-yl)naphthalen-2-yl)methanesulfonamide]
IC50 [1]: > 1 µM | EC50 [3]: > 1 µM | IC50 [2]: > 1 µM

COc1c(-c2ccc3c(c2)CCC3=O)cc(-c2c[nH]c(=O)[nH]c2=O)cc1C(C)(C)C [compound 12, 5-(3-tert-butyl-4-methoxy-5-(1-oxo-2,3-dihydro-1H-inden-5-yl)phenyl)pyrimidine-2,4(1H,3H)-dione]
IC50 [1]: 0.01 to 0.1 µM | EC50 [3]: 0.1 to 1 µM | IC50 [2]: 0.01 to 0.1 µM | EC50 [4]: 0.1 to 1 µM

COc1c(-c2ccc3c(c2)CCC3O)cc(-c2c[nH]c(=O)[nH]c2=O)cc1C(C)(C)C (centres unmarked) [compound 13, 5-(3-tert-butyl-5-(1-hydroxy-2,3-dihydro-1H-inden-5-yl)-4-methoxyphenyl)pyrimidine-2,4(1H,3H)-dione]
IC50 [1]: 0.1 to 1 µM | EC50 [3]: > 1 µM | IC50 [2]: 0.1 to 1 µM | EC50 [4]: > 1 µM

COc1c(-c2ccc3cc(NS(C)(=O)=O)ccc3c2)cc(NC(N)=O)cc1C(C)(C)C [compound 14, N-(6-(3-tert-butyl-2-methoxy-5-ureidophenyl)naphthalen-2-yl)methanesulfonamide]
IC50 [1]: < 0.01 µM | EC50 [3]: 0.01 to 0.1 µM | IC50 [2]: 0.01 to 0.1 µM | EC50 [4]: 0.1 to 1 µM

COc1c(-c2ccc3cc(NS(C)(=O)=O)ccc3c2)cc(N2C(=O)CN=C2O)cc1C(C)(C)C [compound 15, N-(6-(3-tert-butyl-5-(2-hydroxy-5-oxo-4,5-dihydro-1H-imidazol-1-yl)-2-methoxyphenyl)naphthalen-2-yl)methanesulfonamide]
IC50 [1]: < 0.01 µM | EC50 [3]: 0.01 to 0.1 µM | IC50 [2]: 0.01 to 0.1 µM | EC50 [4]: 0.1 to 1 µM

COc1c(-c2ccc3cc(NS(C)(=O)=O)ccc3c2)cc(NC(=O)Nc2ccccc2)cc1C(C)(C)C [compound 17, N-(6-(3-tert-butyl-2-methoxy-5-(3-phenylureido)phenyl)naphthalen-2-yl)methanesulfonamide]
IC50 [1]: > 1 µM | IC50 [2]: > 1 µM

COc1c(-c2ccc3cc(NS(C)(=O)=O)ccc3c2)cc(NC(=O)NC(C)C)cc1C(C)(C)C [compound 18, N-(6-(3-tert-butyl-5-(3-isopropylureido)-2-methoxyphenyl)naphthalen-2-yl)methanesulfonamide]
IC50 [1]: > 1 µM | IC50 [2]: > 1 µM

COc1c(-c2ccc3cc(NS(C)(=O)=O)ccc3c2)cc(NC(=O)CNC(=O)OC(C)(C)C)cc1C(C)(C)C [compound 19, tert-butyl 2-(3-tert-butyl-4-methoxy-5-(6-(methylsulfonamido)naphthalen-2-yl)phenylamino)-2-oxoethylcarbamate]
IC50 [1]: > 1 µM | IC50 [2]: > 1 µM

COc1c(-c2ccc3cc(NS(C)(=O)=O)ccc3c2)cc(NC(=O)CN)cc1C(C)(C)C [compound 20, 2-amino-N-(3-tert-butyl-4-methoxy-5-(6-(methylsulfonamido)naphthalen-2-yl)phenyl)acetamide]
IC50 [1]: > 1 µM | IC50 [2]: > 1 µM

COc1c(-c2ccc3cc(NS(C)(=O)=O)ccc3c2)cc(NC(=O)CCN)cc1C(C)(C)C [compound 24, 3-amino-N-(3-tert-butyl-4-methoxy-5-(6-(methylsulfonamido)naphthalen-2-yl)phenyl)propanamide]
IC50 [1]: > 1 µM | IC50 [2]: > 1 µM

COc1c(-c2ccc3cc(NS(C)(=O)=O)ccc3c2)cc(C(=O)c2ccccc2)cc1C(C)(C)C [compound 31, N-(6-(5-benzoyl-3-tert-butyl-2-methoxyphenyl)naphthalen-2-yl)methanesulfonamide]
IC50 [1]: > 1 µM | IC50 [2]: > 1 µM

COc1c(/C=C/c2ccc(NS(C)(=O)=O)cc2)cc(C(=O)c2ccccc2)cc1C(C)(C)C [compound 32, (E)-N-(4-(5-benzoyl-3-tert-butyl-2-methoxystyryl)phenyl)methanesulfonamide]
IC50 [1]: > 1 µM | IC50 [2]: > 1 µM
